Test results taken from paper PMC11127902, “Rescuing tri-heteromeric NMDA receptor function: the potential of pregnenolone-sulfate in loss-of-function GRIN2B variants” (Cellular and Molecular Life Sciences: CMLS, 2024).

Experiments:
[1] = tested on: tri-heteromers (GluN2A/GluN2B); design: method as in PMID 29682629; conditions: 2.5 μM ifenprodil; cited from earlier work
[2] = tested on: GluN2A-containing di-heteromers; design: method as in PMID 29682629; conditions: 2.5 μM ifenprodil; cited from earlier work
GluN2B di-heteromers = tested on: GluN2B di-heteromers; design: method as in PMID 29682629; conditions: 2.5 μM ifenprodil; cited from earlier work
[3] = molecular target: T1, Mixed di-heteromeric GluN2B-wt/GluN2B-G689S (Rattus norvegicus, UniProt P35439+Q00960, G689S); assay: TEVC in Xenopus oocytes; assay type: cell-based; conditions: 5 mM glutamate
T1 construct: expressed in transfected cells; host or cells: Xenopus laevis oocytes, mRNA injection
Source text: (§1) Aliquots were thawed before each experiment.

[4] = molecular target: T2, Purely di-heteromeric GluN2B-wt (GluN1-1a-wt + GluN2B-wt-C1/C2) (Rattus norvegicus, UniProt P35439+Q00959+Q00960, A876H/F846L/G856D/H848F/K857R/M851T/M860L/Q845K/V861L); assay: TEVC in Xenopus oocytes; assay type: cell-based; conditions: 5 mM glutamate
T2 construct: expressed in transfected cells; host or cells: Xenopus laevis oocytes, mRNA injection
Source text: as §1

[5] = molecular target: Tri-heteromeric GluN2A-wt/GluN2B-wt (Rattus norvegicus, UniProt P35439+Q00959+Q00960, A876H/F846L/G856D/H848F/K857R/M851T/M860L/Q845K/V861L); assay: TEVC in Xenopus oocytes; conditions: 5 mM glutamate
Protocol: (§2) Two electrode voltage clamp (TEVC) recordings were carried out 24–72 h after mRNA injections, as previously described [17, 37]. We use a commercial amplifier (Warner Instruments, USA) and Digitizer (Digidata-1550B; Molecular Devices, USA), controlled by the pClamp10 software (Molecular Devices, USA). Electrode were made by pulling glass capillaries (Narishige, Japan) filled with 3 M KCl, into which we inserted chlorinated silver wires. […] For hERG channel recordings, oocytes were clamped at (− 60) mV for 1 s, followed by a voltage jump to 20 mV for 4 s, and an additional voltage jump to (− 50) mV for 6 s and return to baseline voltage (see Supplementary. 6f), as previously described [53].
(§3) When assessing potentiation by PS, all other solutions also included equal amounts of the DMSO carrier (0.2%).
Electrophysiology data were analyzed by Clampfit 11.2 (Molecular Devices, USA), plotted using GraphPad 8 or SigmaPlot 11(Systat software, Inc.). […] In all TEVC recordings in oocytes, the responses were normalized to current amplitude obtained from that individual cell. […] All data are shown as mean ± SEM. In all experiments N indicates the number of independent experiments, whereas n indicates the number of cells recorded. In each experiment, data underwent normality test prior to statistical assessment. Normally distributed data were assessed for significance by using paired t-test or one-way ANOVA for multiple group comparison and post hoc Tukey test or Dunnett's test. Similarly, in the case of non-normally distributed data significance was assessed by Mann Whitney test or Kruskal–Wallis ANOVA on ranks test followed by Dunn’s multiple comparison post hoc; n.s., non-significant; *p < 0.05; **p < 0.01; ***p < 0.001. […] Leak expression was evaluated by normalizing the maximal current (Imax) of each ER-retained NMDAR composition to Imax of control group (which was recorded in all experiments). […]

[6] = tested on: non-tagged purely di-heteromeric GluN2B-G689C; conditions: purely variant di-heteromers, previous observations; cited from earlier work
[7] = molecular target: T3, Tri-heteromeric GluN2A-wt/GluN2B-G689C (Rattus norvegicus, UniProt P35439+Q00959+Q00960, A876H/F846L/G689C/G856D/H848F/K857R/M851T/M860L/Q845K/V861L); assay type: cell-based; conditions: 5 mM glutamate
T3 construct: expressed in transfected cells; host or cells: Xenopus laevis oocytes, mRNA injection
Source text: as §1

[8] = molecular target: T4, Tri-heteromeric GluN2A-wt/GluN2B-G689S (Rattus norvegicus, UniProt P35439+Q00959+Q00960, A876H/F846L/G689S/G856D/H848F/K857R/M851T/M860L/Q845K/V861L); assay type: cell-based; conditions: 5 mM glutamate
T4 construct: expressed in transfected cells; host or cells: Xenopus laevis oocytes, mRNA injection
Source text: as §1

[9] = molecular target: T5, GluN2A-wt-containing tri-heteromeric receptors (GluN2B wt or variants) (Rattus norvegicus, UniProt P35439+Q00959+Q00960, A876H/F846L/G856D/H848F/K857R/M851T/M860L/Q845K/V861L); assay: TEVC in Xenopus oocytes, all tri-heteromers; assay type: cell-based
T5 construct: expressed in transfected cells; host or cells: Xenopus laevis oocytes, mRNA injection
T5 sequence (Q00959 23-1464, other chains not shown): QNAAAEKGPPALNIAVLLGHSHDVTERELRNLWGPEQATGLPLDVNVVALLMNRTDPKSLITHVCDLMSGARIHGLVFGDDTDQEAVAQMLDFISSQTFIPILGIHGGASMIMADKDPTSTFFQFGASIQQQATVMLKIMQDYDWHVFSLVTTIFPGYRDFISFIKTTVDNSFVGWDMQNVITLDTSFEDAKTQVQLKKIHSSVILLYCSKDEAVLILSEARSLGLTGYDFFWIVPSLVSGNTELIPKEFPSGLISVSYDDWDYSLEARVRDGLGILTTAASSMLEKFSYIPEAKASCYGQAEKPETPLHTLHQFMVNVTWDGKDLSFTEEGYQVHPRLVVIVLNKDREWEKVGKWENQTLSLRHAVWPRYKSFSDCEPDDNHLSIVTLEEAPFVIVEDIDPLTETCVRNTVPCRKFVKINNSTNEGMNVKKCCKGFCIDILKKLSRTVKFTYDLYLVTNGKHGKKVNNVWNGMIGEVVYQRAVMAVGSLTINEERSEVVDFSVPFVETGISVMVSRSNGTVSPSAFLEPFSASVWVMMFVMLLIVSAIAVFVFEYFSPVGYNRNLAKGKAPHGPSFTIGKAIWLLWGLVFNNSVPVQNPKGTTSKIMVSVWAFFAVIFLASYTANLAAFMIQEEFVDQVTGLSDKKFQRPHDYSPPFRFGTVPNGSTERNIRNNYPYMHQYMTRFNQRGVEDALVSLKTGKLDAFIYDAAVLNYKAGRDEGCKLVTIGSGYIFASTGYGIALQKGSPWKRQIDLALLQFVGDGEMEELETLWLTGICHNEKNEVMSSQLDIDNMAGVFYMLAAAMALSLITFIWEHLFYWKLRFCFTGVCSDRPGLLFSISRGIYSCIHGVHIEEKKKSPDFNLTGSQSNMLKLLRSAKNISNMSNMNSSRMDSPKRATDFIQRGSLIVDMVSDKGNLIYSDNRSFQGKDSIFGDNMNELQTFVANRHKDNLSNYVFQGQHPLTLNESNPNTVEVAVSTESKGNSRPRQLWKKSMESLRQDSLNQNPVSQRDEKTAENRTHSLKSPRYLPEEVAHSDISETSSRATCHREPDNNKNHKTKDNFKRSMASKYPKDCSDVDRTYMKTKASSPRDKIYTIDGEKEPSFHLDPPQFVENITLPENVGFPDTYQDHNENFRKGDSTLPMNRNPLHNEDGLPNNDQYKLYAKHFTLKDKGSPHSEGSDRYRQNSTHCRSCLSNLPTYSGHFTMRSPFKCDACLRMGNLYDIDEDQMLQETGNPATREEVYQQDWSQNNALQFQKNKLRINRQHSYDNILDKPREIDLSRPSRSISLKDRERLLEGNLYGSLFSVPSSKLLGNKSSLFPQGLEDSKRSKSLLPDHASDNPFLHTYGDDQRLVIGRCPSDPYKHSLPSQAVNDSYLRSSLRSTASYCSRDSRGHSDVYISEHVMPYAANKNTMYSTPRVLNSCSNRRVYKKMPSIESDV
T5 sequence (Q00960+Q00959 fused with the stated changes, other chains not shown): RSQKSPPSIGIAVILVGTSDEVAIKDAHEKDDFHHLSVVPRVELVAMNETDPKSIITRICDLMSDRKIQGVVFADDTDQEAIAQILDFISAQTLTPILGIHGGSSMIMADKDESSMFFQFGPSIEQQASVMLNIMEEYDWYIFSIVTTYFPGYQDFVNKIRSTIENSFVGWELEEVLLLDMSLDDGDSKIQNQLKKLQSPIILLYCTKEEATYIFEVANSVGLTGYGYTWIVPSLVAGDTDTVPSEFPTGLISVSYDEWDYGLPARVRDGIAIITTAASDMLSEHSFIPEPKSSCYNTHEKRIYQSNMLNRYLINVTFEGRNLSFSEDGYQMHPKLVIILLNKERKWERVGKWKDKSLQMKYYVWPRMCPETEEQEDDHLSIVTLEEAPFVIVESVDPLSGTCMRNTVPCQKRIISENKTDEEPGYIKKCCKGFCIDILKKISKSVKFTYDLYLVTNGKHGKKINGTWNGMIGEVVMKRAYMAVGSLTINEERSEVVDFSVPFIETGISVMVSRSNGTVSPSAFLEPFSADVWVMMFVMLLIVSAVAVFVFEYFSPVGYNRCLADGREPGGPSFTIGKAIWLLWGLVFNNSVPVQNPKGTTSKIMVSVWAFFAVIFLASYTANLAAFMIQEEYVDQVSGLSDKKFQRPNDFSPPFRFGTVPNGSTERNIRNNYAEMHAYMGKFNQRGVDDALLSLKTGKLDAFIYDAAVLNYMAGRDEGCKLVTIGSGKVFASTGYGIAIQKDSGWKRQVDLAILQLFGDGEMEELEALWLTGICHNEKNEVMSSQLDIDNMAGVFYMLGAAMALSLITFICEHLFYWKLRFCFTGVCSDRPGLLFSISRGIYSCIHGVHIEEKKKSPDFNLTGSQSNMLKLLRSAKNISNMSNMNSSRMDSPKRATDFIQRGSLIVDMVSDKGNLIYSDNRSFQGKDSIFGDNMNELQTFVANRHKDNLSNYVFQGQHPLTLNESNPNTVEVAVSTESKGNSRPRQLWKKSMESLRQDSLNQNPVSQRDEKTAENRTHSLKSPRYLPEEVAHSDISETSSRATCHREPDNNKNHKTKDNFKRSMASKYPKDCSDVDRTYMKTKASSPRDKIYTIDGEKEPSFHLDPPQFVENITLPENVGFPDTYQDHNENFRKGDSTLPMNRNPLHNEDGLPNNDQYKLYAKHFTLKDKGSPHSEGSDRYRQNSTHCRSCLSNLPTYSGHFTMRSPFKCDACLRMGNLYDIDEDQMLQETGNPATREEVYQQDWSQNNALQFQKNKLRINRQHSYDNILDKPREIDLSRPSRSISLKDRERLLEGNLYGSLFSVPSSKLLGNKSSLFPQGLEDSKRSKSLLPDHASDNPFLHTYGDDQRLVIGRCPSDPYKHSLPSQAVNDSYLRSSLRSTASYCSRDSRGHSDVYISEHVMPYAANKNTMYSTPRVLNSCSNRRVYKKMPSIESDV
Source text: as §1

[10] = molecular target: Mixed di-heteromeric GluN2B-wt/GluN2B-G689C (Rattus norvegicus, UniProt P35439+Q00960, G689C); assay: TEVC in Xenopus oocytes; conditions: 5 mM glutamate
Protocol: as §2, §3
Electrophysiology data were analyzed by Clampfit 11.2 (Molecular Devices, USA), plotted using GraphPad 8 or SigmaPlot 11(Systat software, Inc.). […] In all TEVC recordings in oocytes, the responses were normalized to current amplitude obtained from that individual cell. […] All data are shown as mean ± SEM. In all experiments N indicates the number of independent experiments, whereas n indicates the number of cells recorded. In each experiment, data underwent normality test prior to statistical assessment. Normally distributed data were assessed for significance by using paired t-test or one-way ANOVA for multiple group comparison and post hoc Tukey test or Dunnett's test. Similarly, in the case of non-normally distributed data significance was assessed by Mann Whitney test or Kruskal–Wallis ANOVA on ranks test followed by Dunn’s multiple comparison post hoc; n.s., non-significant; *p < 0.05; **p < 0.01; ***p < 0.001. […] Leak expression was evaluated by normalizing the maximal current (Imax) of each ER-retained NMDAR composition to Imax of control group (which was recorded in all experiments). Estimation of activation time constant (τ) for potentiated currents by PS, was performed by fitting PS- potentiated currents with a standard single-exponential function, from which we extracted the time constant (τ).

[11] = tested on: non-tagged purely di-heteromeric GluN2B-G689S; conditions: purely variant di-heteromers, previous observations; cited from earlier work
[12] = tested on: GluN2B-G689C and GluN2B-G689S variant receptors; design: method as in PMID 34212862, PMID 37369021; conditions: cited from earlier work
[13] = tested on: synaptic NMDARs in cultured hippocampal neurons; assay: Fraction of extrasynaptic NMDARs with MK-801, hippocampal neurons; assay type: cell-based, rat; conditions: 1 μM MK-801 10 min, 100 μM NMDA
Protocol: Evaluation of the fraction of extrasynaptic NMDARs was done as previously described. Briefly, neurons were initially perfused with extracellular solution (see above) supplemented with 100 μM of NMDA to assess the total (synaptic and extrasynaptic) NMDAR-dependent current. Subsequently, the 100 μM of NMDA was thoroughly washed for 2 min (to refrain from activation of NMDAR by remaining NMDA), then neurons were perfused with the extracellular solution supplemented with 1 μM MK-801 for 10 min to exclusively block synaptic receptors (which are activated by action-potential independent miniature neurotransmission). Extrasynaptic NMDAR-dependent currents were then measured by washing the cells from excess MK-801 for 2 min followed by a second application of 100 μM NMDA. Evaluation of the fraction of the extrasynaptic NMDARs was done by dividing the maximal current remaining after MK-801 application by the current obtained before the MK-801 treatment.

[14] = molecular target: T6, Purely di-heteromeric GluN2B-G689C (C1/C2) (Rattus norvegicus, UniProt P35439+Q00959+Q00960, A876H/F846L/G689C/G856D/H848F/K857R/M851T/M860L/Q845K/V861L); assay: TEVC in Xenopus oocytes; assay type: cell-based
T6 construct: expressed in transfected cells; host or cells: Xenopus laevis oocytes, mRNA injection
Source text: as §1

[15] = molecular target: T7, Purely di-heteromeric GluN2B-G689S (C1/C2) (Rattus norvegicus, UniProt P35439+Q00959+Q00960, A876H/F846L/G689S/G856D/H848F/K857R/M851T/M860L/Q845K/V861L); assay: TEVC in Xenopus oocytes; assay type: cell-based
T7 construct: expressed in transfected cells; host or cells: Xenopus laevis oocytes, mRNA injection
T7 sequence (Q00960+Q00959 fused with the stated changes, other chains not shown): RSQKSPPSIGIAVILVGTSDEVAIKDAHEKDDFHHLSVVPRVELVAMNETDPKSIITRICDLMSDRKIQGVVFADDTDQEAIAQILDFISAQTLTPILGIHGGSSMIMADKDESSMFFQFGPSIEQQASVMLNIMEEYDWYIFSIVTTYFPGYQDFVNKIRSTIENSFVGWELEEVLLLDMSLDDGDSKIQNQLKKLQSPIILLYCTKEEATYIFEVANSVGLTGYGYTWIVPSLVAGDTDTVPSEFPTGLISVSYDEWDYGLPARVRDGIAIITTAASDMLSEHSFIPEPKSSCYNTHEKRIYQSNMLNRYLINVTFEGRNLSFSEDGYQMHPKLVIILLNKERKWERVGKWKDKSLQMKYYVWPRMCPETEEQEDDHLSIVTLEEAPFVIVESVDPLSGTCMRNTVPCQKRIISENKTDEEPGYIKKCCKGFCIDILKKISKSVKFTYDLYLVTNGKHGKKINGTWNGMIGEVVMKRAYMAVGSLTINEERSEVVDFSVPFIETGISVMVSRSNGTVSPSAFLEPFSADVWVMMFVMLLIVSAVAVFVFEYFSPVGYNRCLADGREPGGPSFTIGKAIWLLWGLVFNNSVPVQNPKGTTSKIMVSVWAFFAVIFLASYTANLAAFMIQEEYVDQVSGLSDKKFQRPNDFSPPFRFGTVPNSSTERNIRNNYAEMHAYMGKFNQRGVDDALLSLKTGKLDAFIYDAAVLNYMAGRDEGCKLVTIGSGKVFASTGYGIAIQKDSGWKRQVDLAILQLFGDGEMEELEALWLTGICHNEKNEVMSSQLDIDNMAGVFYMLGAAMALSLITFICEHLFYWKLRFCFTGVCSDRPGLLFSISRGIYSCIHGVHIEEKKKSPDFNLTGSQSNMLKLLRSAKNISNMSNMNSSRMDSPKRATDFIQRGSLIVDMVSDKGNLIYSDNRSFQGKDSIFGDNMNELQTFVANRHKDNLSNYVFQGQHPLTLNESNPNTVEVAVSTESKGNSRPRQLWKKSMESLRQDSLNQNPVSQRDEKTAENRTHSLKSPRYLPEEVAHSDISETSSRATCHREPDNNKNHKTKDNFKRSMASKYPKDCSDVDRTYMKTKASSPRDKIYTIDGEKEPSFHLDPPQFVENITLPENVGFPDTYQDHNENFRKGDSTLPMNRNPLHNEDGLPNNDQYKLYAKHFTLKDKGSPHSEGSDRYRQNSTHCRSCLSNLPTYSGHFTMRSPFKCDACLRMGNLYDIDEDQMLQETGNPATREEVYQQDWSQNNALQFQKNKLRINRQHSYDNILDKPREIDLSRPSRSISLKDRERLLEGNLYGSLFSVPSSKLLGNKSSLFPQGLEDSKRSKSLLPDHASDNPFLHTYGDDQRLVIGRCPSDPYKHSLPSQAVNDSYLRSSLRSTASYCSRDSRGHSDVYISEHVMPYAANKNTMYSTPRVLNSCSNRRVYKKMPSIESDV
Source text: as §1

[16] = molecular target: T8, Purely wt or mixed di-heteromeric receptors containing GluN2B-subunits (Rattus norvegicus, UniProt P35439+Q00959+Q00960, A876H/F846L/G856D/H848F/K857R/M851T/M860L/Q845K/V861L); assay: TEVC in Xenopus oocytes, wt and mixed di-heteromers; assay type: cell-based; conditions: 100 µM PS
T8 construct: expressed in transfected cells; host or cells: Xenopus laevis oocytes, mRNA injection
Source text: as §1

[17] = tested on: GluN2C- and GluN2D-containing di-heteromers; conditions: cited from earlier work
[18] = tested on: NMDAR-dependent currents in cultured hippocampal neurons (naive or overexpressing GluN2B-wt, GluN2B-G689C, GluN2B-G689S); assay: Whole cell patch clamp of primary cultured hippocampal neurons; assay type: cell-based, rat
Protocol: Cultures of hippocampal primary neurons were established as previously stated. Briefly, extracted rat neonates (P0) hippocampi were dissociated and plated onto 12 mm poly-D-lysine (Sigma-Aldrich, Cat. #P6407)- treated glass coverslips. Cultures were then maintained in an enriched growth media and grown at 37 °C and 5% CO2. Following five days in-vitro (DIV), growth medium was supplemented with 4 μM cytosine-arabinoside (ARA-C) to suppress glia proliferation. At nine DIV, neurons were co-transfected using the calcium-phosphate method with 2 different plasmids: 0.3 μg DNA of eYFP and 2 μg GluN2B-wt or GluN2B-G689C or GluN2B-G689S. To avoid recordings from cells transfected only with the fluorescent reporter, the ratio between the different plasmids during co-transfection favored the plasmids encoding GluN2B-wt/G689C/G689S. Recordings were performed four to seven days past transfection.
We patched YFP-positive neurons at 13–18 DIV. YFP was excited by X-Cite LED illuminator (Excelitas Technologies). Electrode were made by pulling glass capillaries to resistance of 5–10 MΩ. Electrodes were filled with an intracellular solution containing (in mM): 135 K-gluconate, 10 NaCl, 10 HEPES, 2 MgCl2, 2 Mg^2+-ATP, 1 EGTA, pH adjusted to 7.3 with KOH. Patch-clamp recordings were performed with Axon MultiClamp 700B amplifier and Axon Digidata 1440A acquisition system. In all experiments, recordings were performed using a 10 kHz sampling rate and low pass filter. Neurons were clamped at (-70) mV. […] Cells were recorded for ~ 3 min. For assessing the total NMDAR-dependent current (Imax), neurons were then perfused with extracellular solution (see above) supplemented with 100 μM of NMDA (Alomone labs, Cat #: N-170) for exclusive activation of NMDARs. Potentiation was assessed by perfusing cells with the extracellular solution along with 100 μM NMDA and 100 μM of PS (Cat. #P162) in 0.2% DMSO. […] Cells that didn’t reach steady-state after application of 100 μM NMDA were excluded from analysis. Extent of potentiation by PS was evaluated at steady-state.

GABAA receptor = tested on: GABAA receptor; design: method as in PMID 34339523; conditions: cited from earlier work
[19] = molecular target: di- or tri-heteromeric NMDA receptors (Rattus norvegicus, UniProt P35439+Q00959+Q00960, A876H/F846L/G856D/H848F/K857R/M851T/M860L/Q845K/V861L); conditions: 0.1-10 μM olanzapine, 5 mM glutamate, 100 μM glycine
Source text: as §1

all NMDAR-subtypes = tested on: all NMDAR-subtypes; design: method as in PMID 24174662; conditions: cited from earlier work
GABAA receptors = tested on: GABAA receptors; design: method as in PMID 24174662; conditions: cited from earlier work

## CC(C(O)c1ccc(O)cc1)N1CCC(Cc2ccccc2)CC1 (stereo not drawn) [ifenprodil]
[1]
  expected inhibition by ifenprodil: < 40%
[2]
  expected inhibition by ifenprodil: < 10%
GluN2B di-heteromers
  expected inhibition by ifenprodil: ~ 85%

## NCCCNCCCCNCCCN [Spermine, spermine]
[3]; 200 μM spermine, pH 7.3
  Spermine Potentiation (Fold change): 1.61 ± 0.03 (N = 2, n = 24) Fold change
[4]; 200 μM spermine, pH 7.3
  Spermine Potentiation (Fold change): 1.97 ± 0.56 (N = 3, n = 25) Fold change
[5]; 200 μM spermine, pH 7.3
  Spermine Potentiation (Fold change): 0.73 ± 0.02 (N = 2, n = 12) Fold change
[6]
  response to spermine: poorly responsive
[7]; 200 μM spermine, pH 7.3
  Spermine Potentiation (Fold change): 0.70 ± 0.03 n.s (N = 1, n = 10) Fold change
[8]; 200 μM spermine, pH 7.3
  Spermine Potentiation (Fold change): 0.75 ± 0.02 n.s (N = 2, n = 19) Fold change
[9]; 200 μM spermine, pH 7.3, 5 mM glutamate
  response to spermine: non-responsive
[9]; all tri-heteromers examined, 200 μM spermine
  inhibition by spermine (fold): 0.75 fold
[10]; 200 μM spermine, pH 7.3
  Spermine Potentiation (Fold change): 1.78 ± 0.51 (N = 2, n = 20) Fold change
[11]
  response to spermine: inhibited

## C[C@]12N[C@H](Cc3ccccc31)c1ccccc12 [MK-801]
[12]
  block by MK-801: efficiently and potently blocks both variant receptors
[13]; neurons overexpressing GluN2B-wt
  extrasynaptic fraction (current remaining after MK-801): 38%
[13]; neurons overexpressing the variants
  fraction of remaining current after MK-801: ~ 50%

## pregnenolone-sulfate [PS]
[3]; 100 μM PS
  PS Potentiation (Fold change): 2.99 ± 0.10 n.s (N = 3, n = 20) Fold change
[14]; 100 µM PS
  potentiation by PS (fold increase): ~ fourfold
[14]; 100 μM PS, 5 mM glutamate
  PS Potentiation (Fold change): 3.96 ± 0.14 (N = 3, n = 18) Fold change
[4]; 100 μM PS
  PS Potentiation (Fold change): 3.03 ± 0.13 (N = 3, n = 16) Fold change
[15]; 100 µM PS
  potentiation by PS (fold increase): ~ fivefold
[15]; 100 μM PS, 5 mM glutamate
  PS Potentiation (Fold change): 4.68 ± 0.19 (N = 3, n = 23) Fold change
[5]; 100 μM PS
  PS Potentiation (Fold change): 1.87 ± 0.04 (N = 4, n = 30) Fold change
[7]; 100 μM PS
  PS Potentiation (Fold change): 2.12 ± 0.10 n.s (N = 3, n = 13) Fold change
[8]; 100 μM PS
  PS Potentiation (Fold change): 2.02 ± 0.06 n.s (N = 2, n = 13) Fold change
[9]; 100 µM PS, all tri-heteromeric types, wt or GluN2B variants
  potentiation by PS (fold increase): ~ twofold
[16]
  potentiation by PS (fold increase): ~ threefold
[10]; 100 μM PS
  PS Potentiation (Fold change): 2.78 ± 0.15 n.s. (N = 3, n = 13) Fold change
[17]
  mode of action of PS: negative allosteric modulator (NAM)
[18]; 100 μM PS with 100 μM NMDA, 50 μM glycine, all groups
  effect of PS on Imax: increased Imax of neurons from all groups
[18]; 100 μM PS, no NMDA added
  effect of PS on NMDAR-current without added NMDA: enhanced the overall NMDAR-current
[18]; 100 μM PS, neurons overexpressing the variants vs naive or GluN2B-wt
  extent of potentiation (fold) by PS: significantly larger
GABAA receptor
  mode of action of PS: negative allosteric modulator (NAM)

## Cc1cc2c(s1)Nc1ccccc1N=C2N1CCN(C)CC1 [olanzapine]
[19]
  direct effect of olanzapine on NMDAR currents: no evidence for any direct effect

## CC(C)[C@@H](O)CC[C@@H](C)[C@H]1CC[C@H]2[C@@H]3CC=C4C[C@@H](O)CC[C@]4(C)[C@H]3CC[C@]12C [24(S)-HC, 24(S)-hydroxycholesterol]
All NMDAR-subtypes
  potentiation by 24(S)-HC: can potentiate all NMDAR-subtypes alike
GABAA receptors
  effect of 24(S)-HC: no known effect
